Reference: ChEMBL document CHEMBL1649467, “Impact of human serum albumin on oritavancin in vitro activity against enterococci” (Antimicrob Agents Chemother, 2009)
≈ marks a conversion by molar mass, not a printed value.

Tests used:
Enterococcus faecalis [1] = test: Antimicrobial activity against vancomycin-resistant Enterococcus faecalis 1058946 by broth dilution method in presence of 4% HSA; type: functional
Enterococcus faecium [2] = test: Antimicrobial activity against vancomycin-resistant Enterococcus faecium 1119175 by broth dilution method in presence of 4% HSA; type: functional
Enterococcus faecium [3] = test: Bactericidal activity against vancomycin-resistant Enterococcus faecium ATCC 51559 expressing vanA gene assessed as change in bacterial count at 4 ug/ml by time-kill assay; type: functional
Enterococcus faecalis [4] = test: Selectivity ratio of MIC for Enterococcus faecalis ATCC 51299 in presence of 4% HSA to MIC for Enterococcus faecalis 51299; type: functional
Enterococcus faecium [5] = test: Antimicrobial activity against vancomycin-resistant Enterococcus faecium ATCC 51559 by broth dilution method; type: functional
Enterococcus faecalis [6] = test: Bactericidal activity against vancomycin-resistant Enterococcus faecalis ATCC 51299 expressing vanB gene assessed as change in bacterial count at 4 ug/ml by time-kill assay; type: functional
Enterococcus faecalis [7] = test: Antimicrobial activity against vancomycin-resistant Enterococcus faecalis 1058946 by broth dilution method; type: functional
[8] = Free fraction in healthy human male at 4 mg/kg, iv every 24 hrs by LC/MS/MS analysis; type: ADME, organism-based; set-up: dose 4 mg/kg, route intravenous; conditions: in vivo
Enterococcus faecium [9] = test: Selectivity ratio of MIC for Enterococcus faecium 1059060 in presence of 4% HSA to MIC for Enterococcus faecium 1059060; type: functional
Enterococcus faecium [10] = test: Antimicrobial activity against vancomycin-resistant Enterococcus faecium 1059060 by broth dilution method; type: functional
Enterococcus faecalis [11] = test: Bactericidal activity against vancomycin-resistant Enterococcus faecalis 1058946 expressing vanA gene assessed as change in bacterial count at 4 ug/ml by time-kill assay; type: functional
Enterococcus faecalis [12] = test: Bactericidal activity against vancomycin-resistant Enterococcus faecalis ATCC 51299 expressing vanB gene assessed as change in bacterial count at 64 ug/ml by time-kill assay; type: functional
Enterococcus faecalis [13] = test: Bactericidal activity against vancomycin-resistant Enterococcus faecalis 1058946 expressing vanA gene assessed as change in bacterial count at 64 ug/ml by time-kill assay; type: functional
Enterococcus faecium [14] = test: Bactericidal activity against vancomycin-resistant Enterococcus faecium 1119175 expressing vanB gene assessed as change in bacterial count at 64 ug/ml by time-kill assay; type: functional
Enterococcus faecium [15] = test: Selectivity ratio of MIC for Enterococcus faecium 1119175 in presence of 4% HSA to MIC for Enterococcus faecium 1119175; type: functional
Enterococcus faecium [16] = test: Bactericidal activity against vancomycin-resistant Enterococcus faecium 1119175 expressing vanB gene assessed as change in bacterial count at 4 ug/ml by time-kill assay; type: functional
Enterococcus faecium [17] = test: Bactericidal activity against vancomycin-resistant Enterococcus faecium 1059060 expressing vanA gene assessed as change in bacterial count at 64 ug/ml by time-kill assay; type: functional
Enterococcus faecalis [18] = test: Antimicrobial activity against vancomycin-resistant Enterococcus faecalis ATCC 51299 by broth dilution method in presence of 4% HSA; type: functional
Enterococcus faecium [19] = test: Bactericidal activity against vancomycin-resistant Enterococcus faecium ATCC 51559 expressing vanA gene assessed as change in bacterial count at 64 ug/ml by time-kill assay; type: functional
Enterococcus faecium [20] = test: Antimicrobial activity against vancomycin-resistant Enterococcus faecium 1119175 by broth dilution method; type: functional
Enterococcus faecalis [21] = test: Antimicrobial activity against vancomycin-resistant Enterococcus faecalis ATCC 51299 by broth dilution method; type: functional
Enterococcus faecium [22] = test: Antimicrobial activity against vancomycin-resistant Enterococcus faecium 1059060 by broth dilution method in presence of 4% HSA; type: functional
Enterococcus faecalis [23] = test: Antimicrobial activity against vancomycin-susceptible Enterococcus faecalis ATCC 29212 by broth dilution method; type: functional
Enterococcus faecium [24] = test: Selectivity ratio of MIC for Enterococcus faecium ATCC 51559 in presence of 4% HSA to MIC for Enterococcus faecium ATCC 51559; type: functional
Enterococcus faecalis [25] = test: Selectivity ratio of MIC for Enterococcus faecalis 1058946 in presence of 4% HSA to MIC for Enterococcus faecalis 1058946; type: functional
Enterococcus faecium [26] = test: Bactericidal activity against vancomycin-resistant Enterococcus faecium 1059060 expressing vanA gene assessed as change in bacterial count at 4 ug/ml by time-kill assay; type: functional
Enterococcus faecalis [27] = test: Bactericidal activity against vancomycin-susceptible Enterococcus faecalis ATCC 29212 assessed as change in bacterial count at 64 ug/ml by time-kill assay; type: functional
Enterococcus faecalis [28] = test: Bactericidal activity against vancomycin-susceptible Enterococcus faecalis ATCC 29212 assessed as change in bacterial count at 4 ug/ml by time-kill assay; type: functional
Enterococcus faecium [29] = test: Antimicrobial activity against vancomycin-resistant Enterococcus faecium ATCC 51559 by broth dilution method in presence of 4% HAS; type: functional
Enterococcus faecalis [30] = test: Antimicrobial activity against vancomycin-susceptible Enterococcus faecalis ATCC 29212 by broth dilution method in presence of 4% HSA; type: functional
[31] = Cmax in healthy human male at 4 mg/kg, iv every 24 hrs by LC/MS/MS analysis; type: ADME, organism-based; set-up: dose 4 mg/kg, route intravenous; conditions: in vivo
Enterococcus faecalis [32] = test: Selectivity ratio of MIC for Enterococcus faecalis ATCC 29212 in presence of 4% HSA to MIC for Enterococcus faecalis ATCC 29212; type: functional
Enterococcus faecium [33] = test: Bactericidal activity against vancomycin-resistant Enterococcus faecium ATCC 51559 expressing vanA gene assessed as change in bacterial count at 16 ug/ml by time-kill assay; type: functional
Enterococcus faecalis [34] = test: Bactericidal activity against vancomycin-resistant Enterococcus faecalis 1058946 expressing vanA gene assessed as change in bacterial count at 16 ug/ml by time-kill assay; type: functional
Enterococcus faecium [35] = test: Bactericidal activity against vancomycin-resistant Enterococcus faecium 1119175 expressing vanB gene assessed as change in bacterial count at 16 ug/ml by time-kill assay; type: functional
Enterococcus faecalis [36] = test: Bactericidal activity against vancomycin-susceptible Enterococcus faecalis ATCC 29212 assessed as change in bacterial count at 16 ug/ml by time-kill assay; type: functional
[37] = Cmax in healthy human male at 600 mg, po every 12 hrs by LC/MS/MS analysis; type: ADME, organism-based; set-up: dose 600 mg, route oral; conditions: in vivo
Enterococcus faecalis [38] = test: Bactericidal activity against vancomycin-resistant Enterococcus faecalis ATCC 51299 expressing vanB gene assessed as change in bacterial count at 16 ug/ml by time-kill assay; type: functional
Enterococcus faecium [39] = test: Bactericidal activity against vancomycin-resistant Enterococcus faecium 1059060 expressing vanA gene assessed as change in bacterial count at 16 ug/ml by time-kill assay; type: functional

`CCCCCCCCCC(=O)N[C@@H](Cc1c[nH]c2ccccc12)C(=O)N[C@H](CC(N)=O)C(=O)N[C@@H](CC(=O)O)C(=O)N[C@@H]1C(=O)NCC(=O)N[C@@H](CCCN)C(=O)N[C@@H](CC(=O)O)C(=O)N[C@H](C)C(=O)N[C@@H](CC(=O)O)C(=O)NCC(=O)N[C@H](CO)C(=O)N[C@@H]([C@H](C)CC(=O)O)C(=O)N[C@@H](CC(=O)c2ccccc2N)C(=O)O[C@@H]1C` showed an MIC (Enterococcus faecalis [1]) of 16 µg/mL, an MIC (Enterococcus faecium [2]) of 64 µg/mL and a log10CFU/ml (Enterococcus faecium [3]) of 2.4. The Ratio (Enterococcus faecalis [4]) was 16, the MIC (Enterococcus faecium [5]) was 2 µg/mL (≈ 1.23 µM) and the log10CFU/ml (Enterococcus faecalis [6]) was 2.3. The MIC (Enterococcus faecalis [7]) was 2 µg/mL (≈ 1.23 µM), the fraction unbound at 24 h [8] was 0.08 and the Ratio (Enterococcus faecium [9]) was 8. The MIC (Enterococcus faecium [10]) was 1 µg/mL (≈ 0.617 µM), the log10CFU/ml (Enterococcus faecalis [11]) was 2.5 and the log10CFU/ml (Enterococcus faecalis [12]) was 1.4. It also gave a log10CFU/ml (Enterococcus faecalis [13]) of -0.4, a log10CFU/ml (Enterococcus faecium [14]) of 1.5 and a Ratio (Enterococcus faecium [15]) of 16. It also gave a log10CFU/ml (Enterococcus faecium [16]) of 2.3, a log10CFU/ml (Enterococcus faecium [17]) of -0.78 and an MIC (Enterococcus faecalis [18]) of 32 µg/mL. For the same compound, the log10CFU/ml (Enterococcus faecium [19]) was 1.4, the MIC (Enterococcus faecium [20]) was 4 µg/mL (≈ 2.47 µM) and the MIC (Enterococcus faecalis [21]) was 2 µg/mL (≈ 1.23 µM). For the same compound, the MIC (Enterococcus faecium [22]) was 8 µg/mL, the MIC (Enterococcus faecalis [23]) was 2 µg/mL (≈ 1.23 µM) and the Ratio (Enterococcus faecium [24]) was 16. The Ratio (Enterococcus faecalis [25]) was 8, the log10CFU/ml (Enterococcus faecium [26]) was -0.54 and the log10CFU/ml (Enterococcus faecalis [27]) was 0.26. It also gave a log10CFU/ml (Enterococcus faecalis [28]) of 1.9, an MIC (Enterococcus faecium [29]) of 32 µg/mL and an MIC (Enterococcus faecalis [30]) of 32 µg/mL. The Cmax [31] was 64000 ng/mL and the Ratio (Enterococcus faecalis [32]) was 16.
`CC(=O)NC[C@H]1CN(c2ccc(N3CCOCC3)c(F)c2)C(=O)O1` [LINEZOLID] showed a log10CFU/ml (Enterococcus faecium [33]) of -2, an MIC (Enterococcus faecium [2]) of 2 µg/mL and a log10CFU/ml (Enterococcus faecium [3]) of -0.63. It also gave a log10CFU/ml (Enterococcus faecalis [34]) of 0.08, a log10CFU/ml (Enterococcus faecium [35]) of -0.72 and an MIC (Enterococcus faecium [5]) of 1 µg/mL (≈ 2.96 µM). It also gave a log10CFU/ml (Enterococcus faecalis [6]) of -0.5, a log10CFU/ml (Enterococcus faecalis [36]) of 0.11 and a Cmax [37] of 16000 ng/mL. The MIC (Enterococcus faecium [10]) was 1 µg/mL (≈ 2.96 µM), the log10CFU/ml (Enterococcus faecalis [11]) was 0.78 and the log10CFU/ml (Enterococcus faecalis [38]) was -0.35. The log10CFU/ml (Enterococcus faecium [16]) was 0.2, the log10CFU/ml (Enterococcus faecium [39]) was -0.42 and the MIC (Enterococcus faecium [20]) was 2 µg/mL (≈ 5.93 µM). The MIC (Enterococcus faecium [22]) was 1 µg/mL, the log10CFU/ml (Enterococcus faecium [26]) was -0.35 and the log10CFU/ml (Enterococcus faecalis [28]) was 0.13. For the same compound, the MIC (Enterococcus faecium [29]) was 2 µg/mL.
